Experimental data published in patent US20040224313A1, “Polymorphisms in the human cyp2b6 gene and their use in diagnostic and therapeutic applications” (priority 2000, published 2004).
Positions count from the first letter of the chain named.

Experiments:
CYP2B6 [1] = molecular target: T1, CYP2B6 (Homo sapiens, UniProt P20813); details: human liver microsomes, homozygous wild-type (Wt) group
T1 sequence (P20813 1-491): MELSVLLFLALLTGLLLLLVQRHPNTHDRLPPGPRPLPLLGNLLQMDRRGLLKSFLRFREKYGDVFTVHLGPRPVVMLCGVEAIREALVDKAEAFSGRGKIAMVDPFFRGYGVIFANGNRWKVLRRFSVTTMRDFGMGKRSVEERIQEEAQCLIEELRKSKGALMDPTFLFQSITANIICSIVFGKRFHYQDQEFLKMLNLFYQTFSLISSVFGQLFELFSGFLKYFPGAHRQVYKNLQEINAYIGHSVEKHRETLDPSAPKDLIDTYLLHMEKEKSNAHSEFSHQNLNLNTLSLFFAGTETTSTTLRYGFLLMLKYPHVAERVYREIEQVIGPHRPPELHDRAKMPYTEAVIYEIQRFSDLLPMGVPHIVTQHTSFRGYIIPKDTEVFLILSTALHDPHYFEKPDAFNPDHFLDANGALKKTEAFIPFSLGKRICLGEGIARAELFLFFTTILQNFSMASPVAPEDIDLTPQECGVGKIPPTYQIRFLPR
Description: (§1) FIG. 4: Analysis of CYP2B6 protein expression (A) and enzymatic function (B). CYP2B6 protein was determined by immunoblotting and the S-mephenytoin N-demethylation to Nirvanol was measured in 92 liver microsome samples. The 5 nonsynonymous CYP2B6 mutations were determined in DNA from the same 92 individuals. Wt indicates the group of 30 individuals with homozygous wild-type genotype; 487 R/C and 487 C/C show the results for individuals heterozygous or homozygous for the exon 9 mutation, respectively. All other mutant genotypes are collectively shown. The average expression and activity of each group is shown as horizontal line. Statistical significance was evaluated by the t-test in comparison to the Wt group: * P<0.05; ** P<0.01.
(§2) The functional significance of the mutations in the CYP2B6 gene (Table 2) was investigated by analyzing expression and enzymatic activity of CYP2B6 in a large human liver bank. A specific monoclonal antibody, MAB-2B6 (Gentest Corp., Woburn, Mass., USA) was used to immunoquantitate microsomal CYP2B6. S-mephenytoin N-demethylation to Nirvanol was measured as a rather CYP2B6-specific pathway. The five nonsynonymous mutations were determined in all samples.

CYP2B6 [2] = molecular target: T2, CYP2B6 (Homo sapiens, UniProt P20813, R487C); details: human liver microsomes, homozygous carriers of R487C (C1459T)
T2 sequence (P20813 1-491 R487C): T1 sequence (P20813 1-491) with R487C
Description: as §1, §2

CYP2B6 [3] = details: human liver microsomes, heterozygous carriers of R487C (C1459T)
Description: as §1, §2

Compound: CC[C@@]1(c2ccccc2)NC(=O)N(C)C1=O [S-mephenytoin]
- mean enzyme activity, S-mephenytoin N-demethylation (CYP2B6 [1]): 49.2±49.4 pmoles of nirvanol formed/min*mg
- mean enzyme activity, S-mephenytoin N-demethylation (CYP2B6 [2]): 22.2±8.4 pmoles of nirvanol formed/min*mg
- mean enzyme activity, S-mephenytoin N-demethylation (CYP2B6 [3]): 25.9±15.2 pmoles of nirvanol formed/min*mg
